Literature values as cited in patent publication US11582972B2, “Controlled-diffusion semiochemical composition” (MELCHIOR MATERIAL AND LIFE SCIENCE FRANCE, priority 2017, dated 2023).

System: Metamasius hemipterus sericeus
Details: for attractiveness: high doses: ethyl acetate >800 mg/d, ethyl propionate >300 mg/d, ethyl butyrate >100 mg/d

| SMILES | synergistic effect with pheromones (dose >650 mg/d, in the field) | attractiveness |
| --- | --- | --- |
| CCOC(C)=O [ethyl acetate] | synergistic effect with pheromones equivalent to 250 g of sugarcane | as attractive as 250 g of sugarcane |
| CCCC(=O)OCC [ethyl butyrate] | – | as attractive as 250 g of sugarcane |
| CCOC(=O)CC [ethyl propionate] | – | as attractive as 250 g of sugarcane |
